Assay results reported in patent publication US9210936B2, “Biocidal compositions and methods of use” (Dow Global Technologies LLC, priority 2011, dated 2015).

Columns and labels:
Type in all cases: cell-based
[1] = test system: Biofilms of Desulfovibrio longus ATCC 51456 (sessile bacteria); assay: Sessile bacteria kill in biofilms grown in Calgary Biofilm Device; details: 72 hours biofilm, 2 hours treatment, anaerobic
Protocol: (§1) Modified Baar's Medium (ATCC #1249 Broth) is used as culture medium and the medium is changed after 48 hrs of incubation.

[2] = test system: Biofilms of Desulfovibrio longus ATCC 51456; assay: Biofilm removal, remaining biofilm by crystal violet staining; details: 2 hours treatment, optical density of biofilm captured crystal violet at 580 nm
Protocol: as §1
The biofilm is fixed with 99% methanol and, after air drying, the pegs are stained with 2% (w/v) crystal violet and washed with tap water. The pegs are then air dried and the crystal violet bound to the biofilm is extracted with 33% glacial acetic acid. The total remaining biofilm is determined by the optical density (OD) of the extracted solution at 580 nm.

[3] = test system: Desulfovibrio longus ATCC 51456; assay: Biocidal efficacy (MBC, minimum tested biocide concentration for complete bacterial kill) against anaerobic bacteria in salt solution; details: 35° C., 2 hours, 10^6 to 10^7 CFU/mL; for Concentration (ppm active) for anaerobic bacteria kill, DTEA: DTEA part of the MBC for complete bacterial kill; for Concentration (ppm active) for anaerobic bacteria kill, THPS: THPS part of the MBC for complete bacterial kill
Protocol: The synergy indexes reported in the following examples are calculated using the following equation: Synergy Index=Ca/CA+Cb/CB
Ca: Concentration of biocide A required to achieve a certain level of bacterial kill when used in combination with B
CA: Concentration of biocide A required to achieve a certain level of bacterial kill when used alone
Cb: Concentration of biocide B required to achieve a certain level of bacterial kill when used in combination with A
CB: Concentration of biocide B required to achieve a certain level of bacterial kill when used alone.
A synergy index (SI) of 1 indicates additivity, a synergy index of less than 1 indicates synergy, and a synergy index greater than 1 indicates antagonism.
Inside an anaerobic chamber (Bactron anaerobic chamber), a deoxygenated sterile salt solution (3.1183 g of NaCl, 1.3082 mg of NaHCO3, 47.70 mg of KCl, 72.00 mg of CaCl2, 54.49 mg of MgSO4, 172.28 mg of Na2SO4, 43.92 mg of Na2CO3 in 1 L water) is inoculated with Desulfovibrio longus ATCC 51456 to a final bacterial concentration of 10^6 to 10^7 CFU/mL. […] After the treated cell suspensions are incubated at 35° C. for 2 hours, the biocidal efficacy is determined by minimum tested biocide concentration for complete bacterial kill in the aliquots (MBC).

Molecule | Concentration (ppm active) for 3 log10 bacterial reduction [1] [ppm active] | Remaining biofilm, OD580 ([2]; 50 ppm active) | Remaining biofilm, OD580 ([2]; 100 ppm active) | Concentration (ppm active) for anaerobic bacteria kill, DTEA [3] [ppm active] | Concentration (ppm active) for anaerobic bacteria kill, THPS [3] [ppm active]
tetrakis(hydroxymethyl)phosphonium sulfate [THPS] | 50 | 0.57 | 0.68 | 0.00 | 19.75
CCCCCCCCCCSCCN [DTEA, 2-(decylthio)ethanamine] |  |  |  | 20.00 | 0.00
